# According to PMC6882465, “Towards discovery of new leishmanicidal scaffolds able to inhibit Leishmania GSK-3” (Journal of Enzyme Inhibition and Medicinal Chemistry, 2019):
# Biological target: LdGSK-3 (Leishmania donovani, UniProt A6N857)
# Assay: Inhibition of LdGSK-3 with Kinase Glo
# Type: biochemical
# Settings: Table S2; 10 µM
# Method: Assessment of inhibition of LdGSK-3 with Kinase Glo^TM
# The reaction was allowed to proceed for 30 min at 30 °C, then it was incubated at room temperature for another 10 min after addition of Kinase Glo reagents (Promega, Ref. V6712). ATP consumption by LdGSK-3 was measured indirectly through end-point luminescence measurement of each well in a Varioskan Flash microplate reader (Thermo).
# Sequence of LdGSK-3 (A6N857 entry or part of it): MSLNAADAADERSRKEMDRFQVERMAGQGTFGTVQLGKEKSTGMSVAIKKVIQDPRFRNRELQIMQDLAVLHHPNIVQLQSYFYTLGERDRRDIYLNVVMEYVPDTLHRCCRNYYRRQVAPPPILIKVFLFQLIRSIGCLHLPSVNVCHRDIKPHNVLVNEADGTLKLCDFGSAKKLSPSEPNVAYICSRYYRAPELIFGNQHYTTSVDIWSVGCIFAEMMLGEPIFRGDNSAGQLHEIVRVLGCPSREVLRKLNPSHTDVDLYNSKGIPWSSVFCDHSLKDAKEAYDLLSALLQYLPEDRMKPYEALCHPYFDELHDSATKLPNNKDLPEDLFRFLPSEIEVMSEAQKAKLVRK
row,SMILES,% inhibition @ 10µM (initial screening on LdGSK3)
1,CNc1nc(C)nc(N2CCc3cc(C(=O)NCc4ccc(-c5ccn[nH]5)cc4Cl)ccc32)n1.O=C(O)C(F)(F)F [Compound 25],-13.55±3.90%
2,Nc1nc(-c2ccccn2)nc(-n2nc(-c3cccc(C(F)(F)F)c3)cc2N)n1.O=C(O)C(F)(F)F [Compound 26],4.75±1.20%
3,COCc1cc(Nc2ccc(Cl)cc2)nc(-c2ccccn2)n1 [Compound 27],6.35±5.75%
4,CN(Cc1nc2ccc(C(=O)NCC3CCCCC3)cc2[nH]1)C1CCCc2cccnc21.O=C(O)C(F)(F)F (stereo not shown) [Compound 28],1.15±1.75%
5,Cc1nn(-c2nc(N)nc(-c3ccccn3)n2)c(N)c1-c1ccccc1.O=C(O)C(F)(F)F.O=C(O)C(F)(F)F [Compound 29],3.80±1.90%
6,Cn1nc(C(=O)N2CCc3ccccc32)c2c1CCS(=O)(=O)C2 [Compound 30],5.20±1.90%
7,Cc1nnc(-c2nc(NCc3ccc(Cl)cc3)c3cccnc3c2O)[nH]1 [Compound 31],8.20±1.70%
8,COc1cccc(Nc2cc(C)nc(-c3ccccn3)n2)c1 [Compound 32],8.80±4.10%
9,CCCc1cc(N)nc(-c2cc(CCC)cc(N)n2)c1 [Compound 33],-0.35±3.85%
10,c1ccc(Nc2nc(-c3ccccn3)cc(N3CCOCC3)n2)cc1 [Compound 34],-2.00±2.70%
11,COCc1cc(Nc2ccccc2)nc(-c2ccccn2)n1 [Compound 35],2.90±4.05%
12,CCN(CC)c1nc(Nc2ccncc2)nc2ccccc12 [Compound 36],7.10±1.90%
13,Cc1nc2c(-c3ncn[nH]3)cc(NC(=O)Cc3ccccc3)cn2c1C.O=CO [Compound 37],5.90±4.55%
14,CCNc1cc(-c2ccccn2)nc(Nc2ccccc2)n1 [Compound 38],7.10±1.40%
15,COCc1cc(Nc2cccc(Cl)c2)nc(-c2ccccn2)n1 [Compound 39],9.00±3.05%
16,c1ccc(Nc2nc3ccccc3[nH]2)nc1 [Compound 40],13.50±3.10%
17,CCc1nn(-c2ncc(F)c(NC(C)C)n2)c(N)c1C1CCCCC1 [Compound 41],7.05±1.35%
18,COc1ccc(Nc2nc(-c3ccccn3)cc(N3CCCC(O)C3)n2)cc1 (stereo not shown) [Compound 42],5.30±2.55%
19,COc1ccc(CNc2cc(C3CC3)nc(-c3nccn3C)n2)cc1.O=C(O)C(F)(F)F [Compound 43],15.30±1.60%
20,CN(CCOc1ccc(Cl)cc1)Cc1nc(N)nc(N(C)C)n1 [Compound 44],-2.45±1.00%
21,CCNc1cc(-c2ccccn2)nc(Nc2ccc(OC)cc2)n1 [Compound 45],-2.50±5.50%
22,CC(C)COC(=O)Nc1ccc(N2CCC(CNS(=O)(=O)c3ccccc3)CC2)c(F)c1 [Compound 46],4.95±4.45%
23,O=C(Nc1nc(-c2ccccn2)cs1)N1C[C@H]2C[C@@]2(c2ccccc2)C1 [Compound 47],1.55±0.55%
24,Cc1ccc(Nc2nc(-c3ccccn3)cc(N3CCCC(O)C3)n2)cc1 (stereo not shown) [Compound 48],3.25±2.75%

row,SMILES,% inhibition @ 10µM (initial screening on LdGSK3)
1,Cc1ccccc1CNc1cc(C2CC2)nc(-c2nccn2C)n1.O=C(O)C(F)(F)F [Compound 49],5.60±2.35%
2,CC(C)(C)c1cc(NC2CC2)nc(-c2ccccn2)n1 [Compound 50],4.70±2.30%
3,Cc1cc(C)cc(NS(=O)(=O)c2cc(-c3cc(C)[nH]n3)ccc2C)c1 [Compound 51],5.95±1.25%
4,Oc1c(-c2n[nH]c(Cc3ccc(Cl)cc3)n2)ncc2cccnc12 [Compound 52],5.05±2.35%
5,O=C(Nc1nc2ccccc2[nH]1)c1ccc2nc[nH]c2c1 [Compound 53],-1.60±1.50%
6,O=C(Nc1nc(-c2ccccn2)cs1)C1CCc2ccccc2C1 (stereo not shown) [Compound 54],0.10±1.10%
7,Nc1cc(-c2ccc3ncnc(N4CCOCC4)c3c2)cnc1N [Compound 55],0.55±3.00%
8,COc1ccc(Oc2ccc(C(C)N(C)c3ncc4c(N)nc(N)nc4n3)cc2)cc1 (stereo not shown) [Compound 56],0.50±2.95%
9,Cc1cc(-c2cccc3ccccc23)nc2nc(N)nc(N)c12 [Compound 57],6.10±3.15%
10,O=C(CN(Cc1ccccn1)Cc1ccccn1)NC1Cc2ccccc2C1.O=C(O)C(F)(F)F [Compound 58],3.75±2.40%
11,O=C(Nc1ccc(S(=O)(=O)N2CCCC2)cc1)c1ccc([N+](=O)[O-])s1 [Compound 59],16.15±4.10%
12,CC(C)c1sc(Cl)nc1C(=O)NCCc1nc(C(=O)Nc2ccc3c(c2)OCO3)cs1 [Compound 60],0.20±2.80%
13,COc1cccc(-c2c(C)nn(-c3nc(N)nc(-c4ccccn4)n3)c2N)c1 [Compound 61],-2.20±1.15%
14,CC(c1ccc2c(c1)CCCC2)N(C)c1ncc2c(N)nc(N)nc2n1 (stereo not shown) [Compound 62],12.10±2.40%
15,N#Cc1cccc(CNc2ccc(-c3cnn(CC4CC4)c(=O)c3C#N)cc2)c1 [Compound 63],-3.20±0.80%
16,O=C(Nc1ccccc1)Nc1nc(-c2ccccn2)cs1 [Compound 64],1.40±0.95%
17,Cc1ccc(Nc2nc(C3CCCN3Cc3ccn[nH]3)cs2)nc1 (stereo not shown) [Compound 65],-0.35±2.35%
18,Oc1c(-c2n[nH]c(CCc3ccccc3)n2)ncc2cccnc12 [Compound 66],0.90±0.90%
19,O=C1CN(C(=O)c2cccc(Nc3ncc(-c4ccc5c(c4)OCO5)cn3)c2)CCN1 [Compound 67],5.65±3.60%
20,O=C(CN(Cc1ccccn1)Cc1ccccn1)NCc1csc(-c2cccs2)n1.O=C(O)C(F)(F)F [Compound 68],6.80±1.95%
21,Cc1ccc(-c2csc(NC(=O)C=Cc3ccc(S(=O)(=O)N4CCOCC4)cc3)n2)o1 [Compound 69],64.27±2.13%
22,CCCn1c(NC(=O)CCn2cc(Br)cn2)nc2ccccc21 [Compound 70],3.80±1.25%
23,N#CN1CC[C@@H](NC(=O)Nc2ccccc2Oc2ccccc2)C1 [Compound 72],7.40±4.30%
24,Cc1cc(N2CCc3ccccc3C2)nc(Nc2ccc(S(=O)(=O)N3CCOCC3)cc2)n1.Cl [Compound 73],-3.05±0.35%

row,SMILES,% inhibition @ 10µM (initial screening on LdGSK3)
1,Cc1ccc2onc(Nc3ccnc(Nc4cccc(S(C)(=O)=O)c4)n3)c2c1.O=C(O)C(F)(F)F [Compound 74],10.00±0.75%
2,CC(c1cc(Cl)cc(Cl)c1)N(C)c1ncc2c(N)nc(N)nc2n1 (stereo not shown) [Compound 75],10.05±1.10%
3,O=C(Nc1n[nH]c(-c2ccccn2)n1)C1CC1c1ccccc1 (stereo not shown) [Compound 76],5.70±0.50%
4,COc1ccc(Cc2nc(-c3ncc4cccnc4c3O)n[nH]2)cc1OC [Compound 77],4.60±0.95%
5,CCOc1ccc(CN(C)Cc2nc(N)nc(Nc3ccc(C)cc3)n2)cc1 [Compound 78],4.90±1.45%
6,Cc1ccc(Nc2nc(N)nc(CNC(c3nc4ccccc4[nH]3)C(C)C)n2)cc1 (stereo not shown) [Compound 79],6.40±1.30%
7,Cn1c(CC(=O)NNC(=O)c2ccc3ccccc3n2)nc2ccccc21 [Compound 80],7.95±1.65%
8,COc1cccc(CN(C)Cc2nc(N)c3c(C)c(C)sc3n2)c1 [Compound 81],6.35±3.00%
9,N#Cc1ccccc1S(=O)(=O)N1CCN(C(=O)CNC(=O)c2ccc3c(c2)OCO3)CC1 [Compound 82],1.90±2.60%
10,CNc1nc(C)nc(N2CCc3cc(C(=O)NCc4ccc(-c5nccn5C)cc4Cl)ccc32)n1.O=C(O)C(F)(F)F [Compound 83],-5.05±0.45%
11,COc1cnc2ccc(=O)n(CCN3CCC(NC/C=C/c4cc(F)ccc4F)CC3)c2c1 [Compound 84],3.55±2.20%
12,CC(c1ccccn1)N(C)Cc1nc2ccccc2n1C(C)C (stereo not shown) [Compound 85],3.45±4.90%
13,c1ccc2sc(Nc3nc4ncccc4[nH]3)nc2c1 [Compound 86],6.55±2.70%
14,c1ccc(-c2nc(NCc3ccco3)c3ccccc3n2)nc1 [Compound 87],-0.05±0.95%
15,COc1ccc(-c2cnc(NC(=O)c3ccc(F)cc3)n2C)cc1 [Compound 88],2.00±1.95%
16,O=C(Nc1cccc(Cl)c1)Nc1ccc([N+](=O)[O-])cc1Cl [Compound 89],4.80±2.05%
17,COc1ccc(-c2cnc(NC(=O)c3cc(-c4ccccn4)n[nH]3)n2C)cc1 [Compound 90],6.40±2.45%
18,CN(Cc1nc2cccc(C(=O)N3CCN(Cc4ccccc4)CC3)c2[nH]1)C1CCCc2cccnc21.O=C(O)C(F)(F)F (stereo not shown) [Compound 91],12.65±6.10%
19,c1ccc(-c2nc(NC3CCCC3)c3ccccc3n2)nc1 [Compound 92],-0.55±1.25%
20,CCc1cc(C(=O)Nc2nccn2-c2ccccc2)cs1 [Compound 93],-2.35±1.95%
21,CC(C)c1nn(-c2nc(N)nc(-c3ccccn3)n2)c(N)c1C1CCCCC1 [Compound 94],10.45±0.55%
22,O=C(c1ccc(O)c(Cl)c1)N1CCN(c2cnccn2)CC1 [Compound 96],1.65±2.40%
23,Cc1ccc(NC(=O)c2ccc([N+](=O)[O-])s2)cc1S(=O)(=O)N1CCOCC1 [Compound 97],6.15±1.05%
24,O=C(CCCNC(=O)c1ccc(Cl)cc1)Nc1nc(-c2ccccn2)cs1 [Compound 98],8.50±1.10%

# Same assay, conditions: assayed at 10 µM
row,SMILES,percentage of inhibition of LdGSK-3
1,Cc1ccc(-c2csc(NC(=O)C=Cc3ccc(S(=O)(=O)N4CCOCC4)cc3)n2)o1 [Compound 69],higher than 50%
